Data as given in patent US12612424B2, “HPK1 inhibitors and uses thereof” (Regor Pharmaceuticals, Inc., priority 2019, dated 2026).

System: Human Pan T Cell (IL-2 release)
Assay: IL2 released by human pan T cell upon anti-CD3/anti-CD28 stimulation (ELISA)
Type: cell-based
Settings: human pan T cells; for maximal fold induction / EC50 / EC (2-fold response): Homo sapiens, T-cell; for maximal fold induction / EC (2-fold response): 48 h; for maximal fold induction: response of IL-2 over DMSO control, anti-CD3/anti-CD28, 48 hours, ELISA, read-out: IL-2 Max Fold Response; for EC50: IL-2 response, calculated with GraphPad Prism; for EC (2-fold response) / EC2x (nM): concentration of compound that gives 200% IL-2 response (2 folds) over DMSO control
Procedure, shortened: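 Primary human pan-T cells, negatively isolated from PBMC, plated at 100,000 cells/well and stimulated with immobilized anti-CD3 plus soluble anti-CD28 in presence of test compound at varying concentrations. After 2 days, secreted IL-2 in supernatant quantified by ELISA.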

| EC50 | Compound | maximal fold induction | EC (2-fold response) | EC2x (nM) |
| --- | --- | --- | --- | --- |
| > 1000 nM | COc1cc2c(cc1Nc1ncc(Cl)c(N3CCc4cc(Cl)ccc43)n1)CN(C)CC2 [Example 13, N-(5-chloro-4-(5-chloroindolin-1-yl)pyrimidin-2-yl)-6-methoxy-2-methyl-1,2,3,4-tetrahydroisoquinolin-7-amine] | < 2 |  |  |
| 500 to 1000 nM | COc1cc2c(cc1Nc1ncc(Cl)c(N3CC(P(C)(C)=O)c4ccccc43)n1)CN(C)CC2 (centres unmarked) [Example 88] | < 2 |  |  |
|  | COc1cc2c(cc1Nc1ncc(Cl)c(N3CC(C(=O)NO)c4ccccc43)n1)CN(C)CC2 (centres unmarked) [Example 101, 1-(5-Chloro-2-((6-methoxy-2-methyl-1,2,3,4-tetrahydroisoquinolin-7-yl)amino)pyrimidin-4-yl)-N-hydroxyindoline-3-carboxamide] | < 2 |  |  |
| 100 to 500 nM | COc1cc2c(cc1Nc1ncc(Cl)c(-n3cc(CC(=O)O)c4cc(F)c(F)cc43)n1)CN(C)CC2 [Example 140] | > 2 | 0.1 to 0.5 µM |  |
| 100 to 500 nM | COc1cc2c(cc1Nc1ncc(Cl)c(N3CCc4cc(P(C)(C)=O)ccc43)n1)CN(C)CC2 [Example 86] | > 2 |  | + (“+”, for greater than 1 μM) |
| ≤ 100 nM | COc1cc2c(cc1Nc1ncc(Cl)c(N3CC(C)(CC(=O)O)c4ccccc43)n1)CN(C)C2 (centres unmarked) [Example 159, 2-(1-(5-Chloro-2-((6-methoxy-2-methylisoindolin-5-yl)amino)pyrimidin-4-yl)-3-methylindolin-3-yl)acetic acid] | > 2 | ≤ 0.1 µM |  |
|  | COC(=O)C1CN(c2nc(Nc3cc4c(cc3OC)CCN(C)C4)ncc2C(F)F)c2ccccc21 (centres unmarked) [Example 112] | < 2 |  |  |
| ≤ 100 nM | COc1cc2c(cc1Nc1ncc(Cl)c(N3CC(C)(C(=O)O)c4ccc(F)cc43)n1)CN(C)CC2 (centres unmarked) [Example 126] | > 2 | ≤ 0.1 µM |  |
|  | COc1cc2c(cc1Nc1ncc(Cl)c(N3CC(C(=O)NS(C)(=O)=O)c4ccccc43)n1)CN(C)CC2 (centres unmarked) [Example 98] | < 2 |  |  |
|  | COc1cc2c(cc1Nc1ncc(Cl)c(N3CC(C(=O)N(C)O)c4ccccc43)n1)CN(C)CC2 (centres unmarked) [Example 102] | < 2 |  |  |
| 500 to 1000 nM | COc1cc2c(cc1Nc1ncc(Cl)c(N3CC(S(C)(=O)=O)c4ccccc43)n1)CN(C)CC2 (centres unmarked) [Example 81, N-(5-chloro-4-(3-(methylsulfonyl)indolin-1-yl)pyrimidin-2-yl)-6-methoxy-2-methyl-1,2,3,4-tetrahydroisoquinolin-7-amine] | > 2 | 0.1 to 0.5 µM |  |
| > 1000 nM | COc1cc2c(cc1Nc1ncc(Cl)c(N3C[C@](C)(C(=O)O)c4ccccc43)n1)CN(C)CC2 (single isomer, unassigned) [Example 118] | < 2 |  |  |
|  | COc1cc2c(cc1Nc1ncc(Cl)c(-n3cc(C4(O)COC4)c4ccccc43)n1)CN(C)CC2 [Example 93] | < 2 |  |  |
| 500 to 1000 nM | COc1cc2c(cc1Nc1ncc(Cl)c(N3CC4(CC4)c4ccccc43)n1)CN(C)CC2 [Example 84, N-(5-chloro-4-(spiro[cyclopropane-1,3′-indolin]-1′-yl)pyrimidin-2-yl)-6-methoxy-2-methyl-1,2,3,4-tetrahydroisoquinolin-7-amine] | < 2 |  |  |
| ≤ 100 nM | COc1cc2c(cc1Nc1ncc(Cl)c(N3CC(C)(CC(=O)O)c4ccccc43)n1)CNCC2 (centres unmarked) [Example 160, 2-(1-(5-Chloro-2-((6-methoxy-1,2,3,4-tetrahydroisoquinolin-7-yl)amino)pyrimidin-4-yl)-3-methylindolin-3-yl)acetic acid methanesulfonic acid] | > 2 | ≤ 0.1 µM |  |
| ≤ 100 nM | COc1cc2c(cc1Nc1ncc(Cl)c(N3C[C@@](C)(C(=O)O)c4ccccc43)n1)CN(C)CC2 (single isomer, unassigned) [Example 119] | > 2 | ≤ 0.1 µM |  |

| EC50 | Compound | maximal fold induction | EC (2-fold response) | EC2x (nM) |
| --- | --- | --- | --- | --- |
|  | COc1cc2c(cc1Nc1ncc(Cl)c(-c3nn(CC(=O)O)c4ccccc34)n1)CN(C)CC2 [Example 162, 2-(3-(5-Chloro-2-((6-methoxy-2-methyl-1,2,3,4-tetrahydroisoquinolin-7-yl)amino)pyrimidin-4-yl)-1H-indazol-1-yl)acetic acid] | < 2 |  |  |
|  | COc1cc2c(cc1Nc1ncc(Cl)c(-n3cc(C(=O)N(C)C)c4ccccc43)n1)CN(C)CC2 [Example 8] | < 2 |  |  |
| > 1000 nM | COc1cc2c(cc1Nc1ncc(Cl)c(-n3cc(CC#N)c4ccccc43)n1)CN(C)CC2 [Example 134] | < 2 |  |  |
| ≤ 100 nM | COc1cc2c(cc1Nc1ncc(Cl)c(N3CC(C)(CC(=O)O)c4cc(F)c(F)cc43)n1)CN(C)CC2 (centres unmarked) [Example 154] | > 2 | ≤ 0.1 µM |  |
|  | COc1cc2c(cc1Nc1ncc(C(F)(F)F)c(-n3ccc4ccccc43)n1)CN(C)CC2 [Example 10, N-(4-(1H-indol-1-yl)-5-(trifluoromethyl)pyrimidin-2-yl)-6-methoxy-2-methyl-1,2,3,4-tetrahydroisoquinolin-7-amine] | < 2 |  |  |
| 100 to 500 nM | COC(=O)C1CN(c2nc(Nc3cc4c(cc3OC)CCN(C)C4)ncc2Cl)c2ccccc21 (centres unmarked) [Example 115, Methyl 1-(5-chloro-2-((6-methoxy-2-methyl-1,2,3,4-tetrahydroisoquinolin-7-yl)amino)pyrimidin-4-yl)indoline-3-carboxylate] | > 2 | 0.1 to 0.5 µM |  |
| > 1000 nM | COc1cc2c(cc1Nc1ncc(Cl)c(-n3cc(Cc4nn[nH]n4)c4ccccc43)n1)CN(C)CC2 [Example 135, N-(4-(3-((2H-tetrazol-5-yl)methyl)-1H-indol-1-yl)-5-chloropyrimidin-2-yl)-6-methoxy-2-methyl-1,2,3,4-tetrahydroisoquinolin-7-amine] | < 2 |  |  |
| 500 to 1000 nM | COC(=O)C1(C)CN(c2nc(Nc3cc4c(cc3OC)CCN(C)C4)ncc2Cl)c2ccccc21 (centres unmarked) [Example 116] | > 2 |  | ++ (“++”, for higher values than “+++” but less than or equal to 1 μM) |
| > 1000 nM | COc1cc2c(cc1Nc1ncc(Cl)c(N3CC(C(=O)O)C4(CCCC4)C3)n1)CN(C)CC2 (centres unmarked) [Example 169, 2-(5-Chloro-2-((6-methoxy-2-methyl-1,2,3,4-tetrahydroisoquinolin-7-yl)amino)pyrimidin-4-yl)-2-azaspiro[4.4]nonane-4-carboxylic acid] | > 2 |  | ++ (“++”, for higher values than “+++” but less than or equal to 1 μM) |
| ≤ 100 nM | COc1cc2c(cc1Nc1ncc(Cl)c(N3CC(C)(CC(=O)O)c4cc(F)ccc43)n1)CN(C)CC2 (centres unmarked) [Example 150, 2-(1-(5-Chloro-2-((6-methoxy-2-methyl-1,2,3,4-tetrahydroisoquinolin-7-yl)amino)pyrimidin-4-yl)-5-fluoro-3-methylindolin-3-yl)acetic acid] | > 2 | ≤ 0.1 µM |  |
| 100 to 500 nM | COc1cc2c(cc1Nc1ncc(Cl)c(-n3cc(CC(=O)O)c4cc(F)ccc43)n1)CN(C)CC2 [Example 138] | > 2 | 0.1 to 0.5 µM |  |
|  | CCOC(=O)CC1(C)CN(c2nc(Nc3cc4c(cc3OC)CCN(C)C4)ncc2Cl)c2ccccc21 (centres unmarked) [Example 149] | < 2 |  |  |
| > 1000 nM | COc1cc2c(cc1Nc1ncc(Cl)c(-n3nc(C(=O)O)c4ccccc43)n1)CN(C)CC2 [Example 113] | < 2 |  |  |
| ≤ 100 nM | CN1CCc2cc(F)c(Nc3ncc(Cl)c(N4CC(C)(CC(=O)O)c5ccccc54)n3)cc2C1 (centres unmarked) [Example 156] | > 2 | ≤ 0.1 µM |  |
| > 1000 nM | COc1cc2c(cc1Nc1ncc(Cl)c(N3CC(c4nn[nH]n4)c4ccccc43)n1)CN(C)CC2 (centres unmarked) [Example 100, N-(4-(3-(2H-tetrazol-5-yl)indolin-1-yl)-5-chloropyrimidin-2-yl)-6-methoxy-2-methyl-1,2,3,4-tetrahydroisoquinolin-7-amine] | > 2 |  | + (“+”, for greater than 1 μM) |
